The values below are quoted from earlier work in PubChem BioAssay AID1259409 (Chemical Carcinogenesis Research Information System (CCRIS), 2018).

This series concerns rodent chemically induced tumor inhibition, incidence and multiplicity. The series is described as follows: CCRIS tumor inhibitor studies. Particulars: Route [Inhibitor]: ORAL, Species: RAT.

Turning to `CCCCCCOc1cc(C)c(O)c(C)c1C`, the “tumour outcome (control, treated, inhibition, significance)” value is 20/21 (95%), 19/19 (100%), -5%, not significant (Carcinogen: 1,2-DIMETHYLBHYDRAZINE [540-73-8], Dose [Inhibitor]: 0.5% IN DIET FOR 32 WK BEGINNING 1 WK POST LAST CARCINOGEN DOSE (STUDY DURATION: 36 WK), Strain/Sex: F344/MALE, Target Tissue: Type of Lesion: COLON: ADENOMA OR CARCINOMA, Dose [Carcinogen]: 40 MG/KG BW 1X/WK FOR 4 WK (STUDY DURATION: 36 WK), Promoter: 2-AMINO-1-METHYL-6-PHENYLIMIDAZO[4,5-B]PYRIDINE [105650-23-5]); 2/20 (10%), 0/21 (0%), 100%, not significant (Carcinogen: 2-AMINO-1-METHYL-6-PHENYL-1H-IMIDAZO[4,5-B]PYRID INE, 105650-23-5, Dose [Inhibitor]: 0, 0.5% IN THE DIET FOR 52 WK (STUDY DURATION: 52 WK), Strain/Sex: F344/FEMALE, Target Tissue: Type of Lesion: MAMMARY GLAND: ADENOCARCINOMA FIBROADENOMA, Dose [Carcinogen]: 0.02% IN THE DIET FOR 52 WK, Promoter: NONE USED); 8/20 (40%), 1/21 (5%), 88%, p< 0.01 (Carcinogen: 2-AMINO-1-METHYL-6-PHENYL-1H-IMIDAZO[4,5-B]PYRID INE, 105650-23-5, Dose [Inhibitor]: 0, 0.5% IN THE DIET FOR 52 WK (STUDY DURATION: 52 WK), Strain/Sex: F344/FEMALE, Target Tissue: Type of Lesion: MAMMARY GLAND: ADENOCARCINOMA, Dose [Carcinogen]: 0.02% IN THE DIET FOR 52 WK, Promoter: NONE USED); 2/18 (11%), 0/21 (0%), 100%, not calculated (Carcinogen: 2-AMINO-1-METHYL-6-PHENYLIMIDAZO[4,5-B]PYRIDINE, 105650-23-5, Dose [Inhibitor]: 0, 0.5% IN DIET FOR 52 WK CONCURRENTLY WITH CARCINOGEN TREATMENT (STUDY DURATION: 52 WK), Strain/Sex: F344/FEMALE, Target Tissue: Type of Lesion: LARGE INTESTINE: ADENOMA OR CARCINOMA, Dose [Carcinogen]: 0.02% IN DIET FOR 52 WK, Promoter: NONE USED); 8/20 (40%), 1/21 (5%), 88%, p<0.01 (Carcinogen: 2-AMINO-1-METHYL-6-PHENYLIMIDAZO[4,5-B]PYRIDINE, 105650-23-5, Dose [Inhibitor]: 0, 0.5% IN DIET FOR 52 WK CONCURRENTLY WITH CARCINOGEN TREATMENT (STUDY DURATION: 52 WK), Strain/Sex: F344/FEMALE, Target Tissue: Type of Lesion: MAMMARY GLAND: ADENOCARCINOMA, Dose [Carcinogen]: 0.02% IN DIET FOR 52 WK, Promoter: NONE USED); 7%, 14%, -100%, not significant (Carcinogen: DIETHYLNITROSAMINE, 55-18-5, N-METHYL-N-NITROSOUREA, 684-63-5, N-BUTYL-N-(4-HYDROXYBUTYL)NITROSAMINE, 3817-11-6, DIMETHY, Carcinogen: DIETHYLNITROSAMINE, 55-18-5, N-METHYL-N-NITROSOUREA, 684-63-5, N-BUTYL-N-(4-HYDROXYBUTYL)NITROSAMINE, 3817-11-6, DIMETHY, Dose [Inhibitor]: 0, 1% IN THE DIET FOR 30 D BEGINNING 1 D PRIOR TO CARCINOGEN TREATMENT (STUDY DURATION: 28 WK), Strain/Sex: F344/MALE, Target Tissue: Type of Lesion: SMALL INTESTINE: CARCINOMA, Dose [Carcinogen]: 100 MG/KG BW DEN ONCE FOLLOWED BY 20 MG/KG BW MNU 4 TIMES AND 0.05% BBN IN DRINKING WATER DURING FIRST 2 WK THEN 40 MG/K, Promoter: NONE USED). Besides, the “tumour outcome (control, treated, inhibition, significance)” value is on record as 7%, 7%, 0%, not significant (Carcinogen: DIETHYLNITROSAMINE, 55-18-5, N-METHYL-N-NITROSOUREA, 684-93-5, N-BUTYL-N-(4-HYDROXYBUTYL)NITROSAMINE, 3817-11-6, DIMETHY, Carcinogen: DIETHYLNITROSAMINE, 55-18-5, N-METHYL-N-NITROSOUREA, 684-93-5, N-BUTYL-N-(4-HYDROXYBUTYL)NITROSAMINE, 3817-11-6, DIMETHY, Dose [Inhibitor]: 0, 1% IN THE DIET FOR 24 MO BEGINNING 1 DAY POST CARCINOGEN TREATMENT (STUDY DURATION: 28 WK), Strain/Sex: F344/MALE, Target Tissue: Type of Lesion: LARGE INTESTINE: CARCINOMA, Dose [Carcinogen]: 100 MG/KG BW DEN ONCE FOLLOWED BY 20 MG/KG BW MNU 4 TIMES AND 0.05% BBN IN DRINKING WATER DURING FIRST 2 WK THEN 40 MG/K, Promoter: NONE USED); 7%, 0%, 100%, not significant (Carcinogen: DIETHYLNITROSAMINE, 55-18-5, N-METHYL-N-NITROSOUREA, 684-93-5, N-BUTYL-N-(4-HYDROXYBUTYL)NITROSAMINE, 3817-11-6, DIMETHY, Carcinogen: DIETHYLNITROSAMINE, 55-18-5, N-METHYL-N-NITROSOUREA, 684-93-5, N-BUTYL-N-(4-HYDROXYBUTYL)NITROSAMINE, 3817-11-6, DIMETHY, Dose [Inhibitor]: 0, 1% IN THE DIET FOR 24 WK BEGINNING 1 D POST CARCINOGEN TREATMENT (STUDY DURATION: 28 WK), Strain/Sex: F344/MALE, Target Tissue: Type of Lesion: URINARY BLADDER: PAPILLOMA, Dose [Carcinogen]: 100 MG/KG BW DEN ONCE FOLLOWED BY 20 MG/KG BW MNU 4 TIMES AND 0.05% BBN IN DRINKING WATER DURING FIRST 2 WK THEN 40 MG/K, Promoter: NONE USED); 27%, 0%, 100%, p<0.05 (Carcinogen: DIETHYLNITROSAMINE, 55-18-5, N-METHYL-N-NITROSOUREA, 684-93-5, N-BUTYL-N-(4-HYDROXYBUTYL)NITROSAMINE, 3817-11-6, DIMETHY, Carcinogen: DIETHYLNITROSAMINE, 55-18-5, N-METHYL-N-NITROSOUREA, 684-93-5, N-BUTYL-N-(4-HYDROXYBUTYL)NITROSAMINE, 3817-11-6, DIMETHY, Dose [Inhibitor]: 0, 1% IN THE DIET FOR 24 WK BEGINNING 1 DAY POST CARCINOGEN TREATMENT (STUDY DURATION: 28 WK), Strain/Sex: F344/MALE, Target Tissue: Type of Lesion: LARGE INTESTINE: ADENOMA, Dose [Carcinogen]: 100 MG/KG BW DEN ONCE FOLLOWED BY 20 MG/KG BW MNU 4 TIMES AND 0.05% BBN IN DRINKING WATER DURING FIRST 2 WK THEN 40 MG/K, Promoter: NONE USED).
